The target of assay [1] is T1, Human Calpain 1/NS1 (Homo sapiens, UniProt P07384).
T1 sequence (P07384 1-714): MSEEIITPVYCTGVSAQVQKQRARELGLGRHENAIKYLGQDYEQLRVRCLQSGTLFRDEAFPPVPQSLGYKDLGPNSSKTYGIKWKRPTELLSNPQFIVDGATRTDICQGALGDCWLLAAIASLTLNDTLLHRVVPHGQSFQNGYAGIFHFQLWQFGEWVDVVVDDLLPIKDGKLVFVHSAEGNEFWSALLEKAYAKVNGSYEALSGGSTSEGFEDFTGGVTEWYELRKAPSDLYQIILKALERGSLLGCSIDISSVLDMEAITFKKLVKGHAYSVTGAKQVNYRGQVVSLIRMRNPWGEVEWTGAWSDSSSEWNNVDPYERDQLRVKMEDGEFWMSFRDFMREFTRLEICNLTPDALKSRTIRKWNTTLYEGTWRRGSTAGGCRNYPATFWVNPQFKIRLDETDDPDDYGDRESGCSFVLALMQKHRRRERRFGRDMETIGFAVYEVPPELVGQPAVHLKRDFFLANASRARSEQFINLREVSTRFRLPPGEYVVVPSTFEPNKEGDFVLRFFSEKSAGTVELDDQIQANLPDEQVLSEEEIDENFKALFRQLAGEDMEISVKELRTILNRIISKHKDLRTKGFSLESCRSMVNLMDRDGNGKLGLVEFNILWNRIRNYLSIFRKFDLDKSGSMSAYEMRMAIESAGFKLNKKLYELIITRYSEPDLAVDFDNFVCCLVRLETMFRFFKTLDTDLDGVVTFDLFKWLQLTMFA
T1 sequence (P04632 1-268 partner): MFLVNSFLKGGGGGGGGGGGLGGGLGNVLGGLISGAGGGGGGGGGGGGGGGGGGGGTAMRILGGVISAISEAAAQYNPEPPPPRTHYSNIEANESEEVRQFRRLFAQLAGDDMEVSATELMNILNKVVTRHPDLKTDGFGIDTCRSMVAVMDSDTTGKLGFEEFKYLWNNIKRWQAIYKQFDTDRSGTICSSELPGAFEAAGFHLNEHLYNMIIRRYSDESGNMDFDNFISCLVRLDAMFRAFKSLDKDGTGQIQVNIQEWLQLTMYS
The assay is described as follows: Calpain inhibition, continuous fluorescence (FRET substrate) assay, calpain 1. It counts as biochemical. To be noted: SensoLyte 520 FRET substrate, 25C. How it is done: (§1) Calpain 1, 2, and 9 activity and inhibition thereof was assessed by means of a continuous fluorescence assay. The SensoLyte 520 Calpain substrate (Anaspec Inc) was optimized for detecting calpain activity. This substrate contains an internally quenched 5-FAM/QXLTM 520 FRET pair. Calpains 1, 2, and 9 cleave the FRET substrate into two separate fragments resulting in an increase of 5-FAM fluorescence that is proportional to calpain activity Assays were typically setup in black 384-well plates using automated liquid handling as follows. Calpain assay base buffer typically contains 50 mM Tris, pH 7.5, 100 mM NaCl and 1 mM DTT. Inhibitors were serially diluted in DMSO and used to setup 2× mixtures with calpains in the aforementioned buffer. After incubation at ambient temperature (25C), the reaction was initiated by adding a 2× mix of the fluorescent peptide substrate and CaCl2) (required for in-situ calpain activation) in the same buffer. Reaction progress curve data were typically collected for 10 min using excitation/emission wavelengths of 490 nm/520 nm on SpectraMax i3× or the FLIPR-Tetra plate readers (Molecular Devices Inc). Reaction rates were calculated from progress curve slopes typically over 1-5 min. Dose response curves (rate vs. log inhibitor concentration) were typically fit to a 4-parameter logistic function to extract IC50 values.

Assay [2] has as its target T2, Human Calpain 2/NS1 (Homo sapiens, UniProt P17655).
T2 sequence (P17655 1-700): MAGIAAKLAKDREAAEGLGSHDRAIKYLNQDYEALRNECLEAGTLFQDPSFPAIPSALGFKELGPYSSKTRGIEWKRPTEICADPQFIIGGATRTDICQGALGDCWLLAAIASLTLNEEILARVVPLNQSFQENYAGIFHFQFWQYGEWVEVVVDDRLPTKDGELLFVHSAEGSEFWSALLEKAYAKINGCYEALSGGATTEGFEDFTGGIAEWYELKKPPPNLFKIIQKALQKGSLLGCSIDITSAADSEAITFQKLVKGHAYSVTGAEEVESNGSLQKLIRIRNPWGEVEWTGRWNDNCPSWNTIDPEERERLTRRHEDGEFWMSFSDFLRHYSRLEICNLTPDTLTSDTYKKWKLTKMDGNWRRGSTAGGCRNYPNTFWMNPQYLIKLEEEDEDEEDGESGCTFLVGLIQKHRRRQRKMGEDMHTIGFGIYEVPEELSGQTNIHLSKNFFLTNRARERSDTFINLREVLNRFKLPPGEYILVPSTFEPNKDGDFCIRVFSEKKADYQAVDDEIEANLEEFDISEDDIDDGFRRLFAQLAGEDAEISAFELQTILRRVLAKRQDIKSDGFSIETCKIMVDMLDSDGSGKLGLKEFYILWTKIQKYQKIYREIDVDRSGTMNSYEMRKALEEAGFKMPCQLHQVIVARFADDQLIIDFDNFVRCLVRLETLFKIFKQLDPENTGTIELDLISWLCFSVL
T2 sequence (P04632 1-268 partner): T1 sequence (P04632 1-268 partner)
As to the kind of experiment: Calpain inhibition, continuous fluorescence (FRET substrate) assay, calpain 2. The settings on record: SensoLyte 520 FRET substrate, 25C. It counts as biochemical. As for the experimental part: as §1

Assay [3] concerns the target T3, Human Calpain 9/NS1 (Homo sapiens, UniProt O14815).
T3 sequence (O14815 1-690): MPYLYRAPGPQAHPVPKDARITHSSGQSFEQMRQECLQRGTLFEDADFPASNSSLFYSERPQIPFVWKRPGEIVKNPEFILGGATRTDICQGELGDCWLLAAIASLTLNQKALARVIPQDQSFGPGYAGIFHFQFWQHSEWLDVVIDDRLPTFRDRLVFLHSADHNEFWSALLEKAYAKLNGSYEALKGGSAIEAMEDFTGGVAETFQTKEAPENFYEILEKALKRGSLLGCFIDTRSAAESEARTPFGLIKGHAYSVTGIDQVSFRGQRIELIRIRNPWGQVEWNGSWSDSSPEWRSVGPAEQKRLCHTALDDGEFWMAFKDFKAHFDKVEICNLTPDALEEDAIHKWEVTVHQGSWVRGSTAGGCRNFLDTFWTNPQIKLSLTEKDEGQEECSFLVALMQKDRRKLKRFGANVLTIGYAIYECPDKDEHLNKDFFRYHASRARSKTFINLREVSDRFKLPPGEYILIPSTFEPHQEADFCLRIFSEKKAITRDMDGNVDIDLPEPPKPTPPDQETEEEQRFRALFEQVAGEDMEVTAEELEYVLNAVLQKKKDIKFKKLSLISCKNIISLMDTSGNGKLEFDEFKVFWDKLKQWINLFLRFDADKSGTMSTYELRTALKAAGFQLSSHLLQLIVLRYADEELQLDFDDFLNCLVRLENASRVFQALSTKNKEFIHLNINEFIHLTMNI
T3 sequence (P04632 1-268 partner): T1 sequence (P04632 1-268 partner)
The assay is described as follows: Calpain inhibition, continuous fluorescence (FRET substrate) assay, calpain 9. To be noted: SensoLyte 520 FRET substrate, 25C. It counts as biochemical. As for the experimental part:
as §1

For assay [4], the system named is Calpain activity in SH-SY5Y cells. As to the kind of experiment: SH-SY5Y spectrin breakdown product (SBDP-150) western blot assay. It is filed as cell-based. To be noted: Homo sapiens, read-out: SH-SY5Y Spectrin IC50.
Assay [5] shares this test system. The assay is described as follows: SH-SY5Y Suc-LLVY-AMC fluorescence assay. It counts as cell-based. The settings on record: Homo sapiens, read-out: SH-SY5Y + AMC IC50.
Setting [6] is: SH-SY5Y cells, 25 uM A23187, SBDP-150 western blot.
Setting [7] is: SH-SY5Y cells, 100 uM Suc-LLVY-AMC.

IC50 data for twelve compounds are collected here from patent US20210009564A1, “CALPAIN MODULATORS AND THERAPEUTIC USES THEREOF” (BLADE THERAPERTICS, INC., priority 2018, published 2021).

Each structure is given as a SMILES string.

For `Cn1cc(C(=O)NC(Cc2ccccc2)C(=O)C(N)=O)c(-c2nccc3ccccc23)n1` (stereo not drawn) [Compound 10, N-(4-AMINO-3,4-DIOXO-1-PHENYLBUTAN-2-YL)-3-(ISOQUINOLIN-1-YL)-1-METHYL-1H-PYRAZOLE-4-CARBOXAMIDE], the half-maximal inhibitory concentration (IC50) – broadly, the concentration needed to halve the response being measured – in assay [1] is 3 to 10 µM; in assay [2], less than 3 µM; in assay [3], less than 3 µM; in assay [4] (setting [6]), more than 25 µM; in assay [5] (setting [7]), more than 25 µM.

With `Cc1cc(C(=O)NC(Cc2ccccc2)C(=O)C(N)=O)n(-c2ncc3ccccc3n2)n1` (stereo not drawn) [Compound 11, N-(4-AMINO-3,4-DIOXO-1-PHENYLBUTAN-2-YL)-3-METHYL-1-(QUINAZOLIN-2-YL)-1H-PYRAZOLE-5-CARBOXAMIDE], the half-maximal inhibitory concentration (IC50) in assay [1] is less than 3 µM; in assay [2], less than 3 µM; in assay [3] it was less than 3 µM; in assay [4] (setting [6]), 10 to 25 µM; in assay [5] (setting [7]), less than 10 µM.

On to `COc1cccc(-c2nn(C)cc2C(=O)NC(Cc2ccccc2)C(=O)C(N)=O)c1OC` (stereo not drawn) [Compound 12, N-(4-AMINO-3,4-DIOXO-1-PHENYLBUTAN-2-YL)-3-(2,3-DIMETHOXYPHENYL)-1-METHYL-1H-PYRAZOLE-4-CARBOXAMIDE], for which the IC50 in assay [1] was 3 to 10 µM; in assay [2], less than 3 µM; in assay [3] it was less than 3 µM; in assay [4] (setting [6]) it was more than 25 µM; in assay [5] (setting [7]) it was more than 25 µM.

Regarding `Cn1cc(C(=O)NC(Cc2ccccc2)C(=O)C(N)=O)c(-c2cnc3ccccc3n2)n1` (stereo not drawn) [Compound 13, N-(4-AMINO-3,4-DIOXO-1-PHENYLBUTAN-2-YL)-1-METHYL-3-(QUINOXALIN-2-YL)-1H-PYRAZOLE-4-CARBOXAMIDE], the half-maximal inhibitory concentration (IC50) in assay [1] was less than 3 µM; in assay [2], less than 3 µM; in assay [3] it was less than 3 µM; in assay [4] (setting [6]) it was more than 25 µM; in assay [5] (setting [7]) it was more than 25 µM.

With `Cn1cc(C(=O)NC(Cc2ccccc2)C(=O)C(N)=O)c(-c2cccc3cccnc23)n1` (stereo not drawn) [Compound 14], the concentration for half-maximal inhibition (IC50) in assay [1] was less than 3 µM; in assay [2], less than 3 µM; in assay [3] it was less than 3 µM; in assay [4] (setting [6]), more than 25 µM; in assay [5] (setting [7]), more than 25 µM.

As for `Cn1cc(C(=O)NC(Cc2ccccc2)C(=O)C(N)=O)c(-c2cc(Cl)oc2Cl)n1` (stereo not drawn) [Compound 15, N-(4-AMINO-3,4-DIOXO-1-PHENYLBUTAN-2-YL)-3-(2,5-DICHLOROFURAN-3-YL)-1-METHYL-1H-PYRAZOLE-4-CARBOXAMIDE], the IC50 in assay [1] was less than 3 µM; in assay [2] it was less than 3 µM; in assay [3], less than 3 µM; in assay [4] (setting [6]), 10 to 25 µM; in assay [5] (setting [7]) it was less than 10 µM.

Consider `Cn1cc(C(=O)NC(Cc2ccccc2)C(=O)C(N)=O)c(-c2cccc3[nH]ncc23)n1` (stereo not drawn) [Compound 16, N-(4-AMINO-3,4-DIOXO-1-PHENYLBUTAN-2-YL)-3-(1H-INDAZOL-4-YL)-1-METHYL-1H-PYRAZOLE-4-CARBOXAMIDE], for which the half-maximal inhibitory concentration (IC50) was less than 3 µM in assay [1]; less than 3 µM in assay [2]; less than 3 µM in assay [3]; 10 to 25 µM in assay [4] (setting [6]); 10 to 25 µM in assay [5] (setting [7]).

Consider `CNC(=O)c1cccc(-c2nn(C)cc2C(=O)NC(Cc2ccccc2)C(=O)C(N)=O)c1` (stereo not drawn) [Compound 17], for which the IC50 in assay [1] is less than 3 µM; in assay [2], less than 3 µM; in assay [3] it was less than 3 µM; in assay [4] (SH-SY5Y), more than 25 µM; in assay [5] (SH-SY5Y), 10 to 25 µM.

As to `NC(=O)C(=O)C(Cc1ccccc1)NC(=O)c1cn(C(F)F)nc1-c1cccc2cccnc12` (stereo not drawn) [Compound 18, N-(4-AMINO-3,4-DIOXO-1-PHENYLBUTAN-2-YL)-1-(DIFLUOROMETHYL)-3-(QUINOLIN-8-YL)-1H-PYRAZOLE-4-CARBOXAMIDE], the 50% inhibitory concentration (IC50) in assay [1] is less than 3 µM; in assay [2] it was less than 3 µM; in assay [3], less than 3 µM; in assay [4] (setting [6]), more than 25 µM; in assay [5] (setting [7]) it was less than 10 µM.

As for `Cn1cc(C(=O)NC(Cc2ccccc2)C(=O)C(N)=O)c(-c2ccoc2Cl)n1` (stereo not drawn) [Compound 19, N-(4-AMINO-3,4-DIOXO-1-PHENYLBUTAN-2-YL)-3-(2-CHLOROFURAN-3-YL)-1-METHYL-1H-PYRAZOLE-4-CARBOXAMIDE], the IC50 in assay [1] was less than 3 µM; in assay [2] it was less than 3 µM; in assay [3] it was less than 3 µM; in assay [4] (setting [6]) it was more than 25 µM; in assay [5] (setting [7]) it was less than 10 µM.

Turning to `NC(=O)C(=O)C(Cc1ccccc1)NC(=O)c1cn(C(F)F)nc1-c1ccoc1Cl` (stereo not drawn) [Compound 20, N-(4-AMINO-3,4-DIOXO-1-PHENYLBUTAN-2-YL)-3-(2-CHLOROFURAN-3-YL)-1-(DIFLUOROMETHYL)-1H-PYRAZOLE-4-CARBOXAMIDE], the IC50 in assay [1] is less than 3 µM; in assay [2] it was less than 3 µM; in assay [3] it was less than 3 µM; in assay [4] (setting [6]), less than 10 µM; in assay [5] (setting [7]) it was less than 10 µM.

Consider `NC(=O)C(=O)C(Cc1ccccc1)NC(=O)c1cn(C(F)F)nc1-c1coc(Cl)c1` (stereo not drawn) [Compound 21, N-(4-AMINO-3,4-DIOXO-1-PHENYLBUTAN-2-YL)-3-(5-CHLOROFURAN-3-YL)-1-(DIFLUOROMETHYL)-1H-PYRAZOLE-4-CARBOXAMIDE], for which the half-inhibitory concentration (IC50) is less than 3 µM in assay [1]; less than 3 µM in assay [2]; less than 3 µM in assay [3]; less than 10 µM in assay [4] (setting [6]); less than 10 µM in assay [5] (setting [7]).
